According to patent US10065990B2, “Cyclic peptide compound, and preparation method, pharmaceutical composition and use thereof” (HANGZHOU GUANYU BIO-MEDICAL CO., LTD, priority 2013, dated 2018):
Read-outs that look alike come from different tables or passages of the source.

Columns and labels:
[1] = biological target: T1, HDAC7 (Homo sapiens, UniProt Q8WUI4); experiment: HDAC biochemical activity measurement (fluorescent substrate deacetylation);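 note: fluorogenic deacetylation assay using acetyl-lysine substrate at 20 µM, enzyme and compound incubated 30 min at 37 °C, then developer added, fluorescence read at 360/460 nm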; details: HDAC7; 37° C. 30 minutes
T1 sequence (Q8WUI4 1-952): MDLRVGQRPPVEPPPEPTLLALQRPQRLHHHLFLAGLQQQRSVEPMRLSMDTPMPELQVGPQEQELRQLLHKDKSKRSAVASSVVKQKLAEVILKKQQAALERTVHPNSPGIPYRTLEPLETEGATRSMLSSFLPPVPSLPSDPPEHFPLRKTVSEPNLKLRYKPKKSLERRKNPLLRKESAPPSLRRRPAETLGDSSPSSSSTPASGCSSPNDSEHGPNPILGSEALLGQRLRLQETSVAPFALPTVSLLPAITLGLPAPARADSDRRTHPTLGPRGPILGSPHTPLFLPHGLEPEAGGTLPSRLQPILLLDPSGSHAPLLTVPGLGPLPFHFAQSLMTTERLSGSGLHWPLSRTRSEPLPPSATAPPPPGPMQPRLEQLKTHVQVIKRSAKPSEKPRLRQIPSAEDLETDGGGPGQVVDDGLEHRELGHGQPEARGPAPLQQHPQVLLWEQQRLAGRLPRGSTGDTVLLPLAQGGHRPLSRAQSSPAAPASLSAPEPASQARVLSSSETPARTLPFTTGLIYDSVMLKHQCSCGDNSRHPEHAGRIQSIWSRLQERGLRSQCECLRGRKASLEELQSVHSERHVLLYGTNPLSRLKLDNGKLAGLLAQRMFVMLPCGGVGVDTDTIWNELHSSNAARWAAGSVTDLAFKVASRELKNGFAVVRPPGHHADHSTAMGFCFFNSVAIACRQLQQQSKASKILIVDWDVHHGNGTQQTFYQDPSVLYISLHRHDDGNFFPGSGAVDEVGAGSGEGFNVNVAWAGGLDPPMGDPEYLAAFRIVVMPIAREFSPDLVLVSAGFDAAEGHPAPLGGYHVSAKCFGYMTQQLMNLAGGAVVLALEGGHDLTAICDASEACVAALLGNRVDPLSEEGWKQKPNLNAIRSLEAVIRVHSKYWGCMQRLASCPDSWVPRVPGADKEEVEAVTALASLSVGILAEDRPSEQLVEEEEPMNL

[2] = test system: A549 (human lung cancer cells); experiment: MTT cancer cell growth inhibition; type: cell-based; details: Homo sapiens, A549, 72 h, MTT, 72 hours incubation, read-out: GI50 A54
Procedure, shortened: (§1)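 GI50 values come from viability measured by MTT reduction at 570 nm. Plated overnight at 1500 cells per well, cultures received drug in three parallel wells across 10^−5–10^−10 M final and were incubated 72 h at 37° C. under 5% CO2 before MTT for 4 h.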

[3] = test system: BGC-823 (human gastric cancer cells); experiment: MTT cancer cell growth inhibition; type: cell-based; details: Homo sapiens, BGC-823, 72 h, MTT, 72 hours incubation, read-out: GI50 BG
Procedure, shortened: as §1

[4] = test system: Bel-7402 (human hepatoma cells); experiment: MTT cancer cell growth inhibition; type: cell-based; details: Homo sapiens, Bel-7402, 72 h, MTT, 72 hours incubation, Bel-7402 cells; read-out: GI50 Bel-7402
Procedure, shortened: as §1

[5] = test system: DU145 (human prostate cancer cells); experiment: MTT cancer cell growth inhibition; type: cell-based; details: Homo sapiens, DU-145, 72 h, MTT, 72 hours incubation, read-out: GI50 Du1
Procedure, shortened: as §1

[6] = test system: H1975 (non-small cell lung adenocarcinoma); experiment: MTT cancer cell growth inhibition; type: cell-based; details: Homo sapiens, NCI-H1975, 72 h, MTT, 72 hours incubation, H1975 cells; read-out: GI50 H1975
Procedure, shortened: as §1

[7] = test system: HCC827 (human non-small cell lung cancer cells); experiment: MTT cancer cell growth inhibition; type: cell-based; details: Homo sapiens, HCC827, 72 h, MTT, 72 hours incubation, HCC827 cells; read-out: GI50 HCC827
Procedure, shortened: as §1

[8] = test system: HT1080 (human fibrosarcoma cells); experiment: MTT cancer cell growth inhibition; type: cell-based; details: Homo sapiens, HT-1080, 72 h, MTT, 72 hours incubation, read-out: GI50 HT1
Procedure, shortened: as §1

[9] = test system: Hela (human cervical cancer cells); experiment: MTT cancer cell growth inhibition; type: cell-based; details: Homo sapiens, HeLa, 72 h, MTT, 72 hours incubation, read-out: GI50 Hela
Procedure, shortened: as §1

[10] = test system: Huh-7 (human hepatoma cells); experiment: MTT cancer cell growth inhibition; type: cell-based; details: Homo sapiens, Huh-7, 72 h, MTT, 72 hours incubation, Huh-7 cells; read-out: GI50 Huh-7
Procedure, shortened: as §1

[11] = test system: K562 (human leukemia cells); experiment: MTT cancer cell growth inhibition; type: cell-based; details: Homo sapiens, K562, 72 h, MTT, 72 hours incubation, K562 cells; read-out: GI50 K562
Procedure, shortened: as §1

[12] = test system: KBM-5 (human chronic myelogenous leukemia); experiment: MTT cancer cell growth inhibition; type: cell-based; details: Homo sapiens, KBM5, 72 h, MTT, 72 hours incubation, KBM-5 cells; read-out: GI50 KBM-5
Procedure, shortened: as §1

[13] = test system: KBM5-T315I (human chronic myelogenous leukemia); experiment: MTT cancer cell growth inhibition; type: cell-based; details: Homo sapiens, 72 h, MTT, 72 hours incubation, KBM5-T315I cells; read-out: GI50 KBM5-T315I
Procedure, shortened: as §1

[14] = test system: MCF-7 (human breast cancer cells); experiment: MTT cancer cell growth inhibition; type: cell-based; details: Homo sapiens, MCF7, 72 h, 72 hours incubation, read-out: GI50 MCF
Procedure, shortened: as §1

[15] = test system: MDA-MB-231 (breast cancer cells); experiment: MTT cancer cell growth inhibition; type: cell-based; details: Homo sapiens, MDA-MB-231, 72 h, read-out: GI50 MDA-MB-231, MTT, 72 hours incubation, MDA-MB-231 cells
Procedure, shortened: as §1

[16] = test system: MOLT-4 (human acute lymphoblastic leukemia cells); experiment: MTT cancer cell growth inhibition; type: cell-based; details: Homo sapiens, MOLT-4, 72 h, MTT, 72 hours incubation, read-out: GI50 Mol
Procedure, shortened: as §1

[17] = test system: N-87 (human gastric cancer cells); experiment: MTT cancer cell growth inhibition; type: cell-based; details: Homo sapiens, 72 h, MTT, 72 hours incubation, N-87 cells; read-out: GI50 N-87
Procedure, shortened: as §1

[18] = test system: PANC-1 (Pac-1, human pancreatic cancer cells); experiment: MTT cancer cell growth inhibition; type: cell-based; details: Homo sapiens, PANC-1, 72 h, MTT, 72 hours incubation, read-out: GI50 PAN
Procedure, shortened: as §1

[19] = test system: SGC-7901 (human gastric cancer cells); experiment: MTT cancer cell growth inhibition; type: cell-based; details: Homo sapiens, SGC-7901, 72 h, MTT, 72 hours incubation, SGC-7901 cells; read-out: GI50 SGC-7901
Procedure, shortened: as §1

[20] = test system: U937 (human leukemia cells); experiment: MTT cancer cell growth inhibition; type: cell-based; details: Homo sapiens, U-937, 72 h, MTT, 72 hours incubation, read-out: GI50 U93
Procedure, shortened: as §1

[21] = test system: lncap (prostate cancer cells); experiment: MTT cancer cell growth inhibition; type: cell-based; details: Homo sapiens, LNCaP, 72 h, MTT, 72 hours incubation, read-out: GI50 lnca
Procedure, shortened: as §1

SMILES	IC50 HDAC7 [1]	GI50 [4] [µM]	GI50 [6] [µM]	GI50 [7] [µM]	GI50 [10] [µM]	GI50 [11] [µM]	GI50 [12] [µM]	GI50 [13] [µM]	GI50 [15] [µM]	GI50 [17] [µM]	GI50 [19] [µM]	GI50 ([2]; A549 cells) [µM]	GI50 ([3]; BGC-823 cells) [µM]	GI50 ([5]; DU145 cells) [µM]	GI50 ([8]; HT1080 cells) [µM]	GI50 ([9]; Hela cells) [µM]	GI50 ([14]; MCF-7 cells) [µM]	GI50 ([16]; MOLT-4 cells) [µM]	GI50 ([18]; PANC-1 cells) [µM]	GI50 ([20]; U937 cells) [µM]	further results
C/C=C1\NC(=O)c2ccc(F)c(n2)CNC(=O)C[C@@H](/C=C/CCSC(C)=O)OC(=O)[C@H](Cc2ccc(O)cc2)NC1=O [Compound 83]	no activity	0.093	0.053	0.093	0.037	0.043	0.038	0.029	0.037	0.016	0.053										GI50 [2]: 0.05 µM; GI50 [3]: 0.01 µM; GI50 [5]: 0.04 µM; GI50 [8]: 0.09 µM; GI50 [9]: 0.03 µM; GI50 [14]: 0.02 µM; GI50 [16]: 0.03 µM; GI50 [18]: 0.09 µM; GI50 [20]: 0.05 µM; GI50 [21]: 0.03 µM
CSc1cc2nc(c1)C(=O)NC(=C(C)C)C(=O)N[C@@H](C(C)C)C(=O)O[C@H](/C=C/CCSC(C)=O)CC(=O)NC2 [Compound 208]	no activity	0.017	0.035	0.067	0.026	0.076	0.018	0.049	0.018	0.056	0.026	0.05	0.05	0.04	0.07	0.08	0.03	0.04	0.03	0.06	GI50 ([21]; lncap cells): 0.03 µM
C/C=C1\NC(=O)c2nc(ccc2SC)CNC(=O)C[C@@H](/C=C/CCS)OC(=O)[C@H](C(C)C)NC1=O [Compound 226]	no activity	0.031	0.037	0.033	0.068	0.061	0.075	0.065	0.034	0.035	0.023	0.06	0.05	0.03	0.02	0.09	0.02	0.03	0.02	0.04	GI50 ([21]; lncap cells): 0.03 µM

Now from value to molecule, other results behind:

IC50 HDAC7 [1]	GI50 [4] [µM]	GI50 [6] [µM]	GI50 [7] [µM]	GI50 [10] [µM]	GI50 [11] [µM]	GI50 [12] [µM]	GI50 [13] [µM]	GI50 [15] [µM]	GI50 [17] [µM]	GI50 [19] [µM]	GI50 ([2]; A549 cells) [µM]	GI50 ([3]; BGC-823 cells) [µM]	GI50 ([5]; DU145 cells) [µM]	GI50 ([8]; HT1080 cells) [µM]	GI50 ([9]; Hela cells) [µM]	GI50 ([14]; MCF-7 cells) [µM]	GI50 ([16]; MOLT-4 cells) [µM]	GI50 ([18]; PANC-1 cells) [µM]	GI50 ([20]; U937 cells) [µM]	SMILES	further results
no activity	0.076	0.043	0.022	0.036	0.021	0.042	0.045	0.052	0.016	0.072										CC(C)=C1NC(=O)c2ccc(F)c(n2)CNC(=O)C[C@@H](/C=C/CCS)OC(=O)[C@H](C(C)C)NC1=O [Compound 138]	GI50 [2]: 0.04 µM; GI50 [3]: 0.02 µM; GI50 [5]: 0.02 µM; GI50 [8]: 0.02 µM; GI50 [9]: 0.06 µM; GI50 [14]: 0.02 µM; GI50 [16]: 0.05 µM; GI50 [18]: 0.03 µM; GI50 [20]: 0.02 µM; GI50 [21]: 0.05 µM
no activity	0.047	0.057	0.065	0.079	0.031	0.013	0.012	0.046	0.037	0.091	0.08	0.02	0.02	0.05	0.01	0.07	0.03	0.01	0.06	C/C=C1\NC(=O)c2ccc(SC)c(n2)CNC(=O)C[C@@H](/C=C/CCSC(=O)CCC)OC(=O)[C@H](C(C)C)NC1=O [Compound 161]	GI50 ([21]; lncap cells): 0.07 µM
no activity	0.038	0.081	0.028	0.095	0.062	0.073	0.047	0.096	0.041	0.028	0.06	0.34	0.05	0.02	0.02	0.03	0.05	0.08	0.06	C/C=C1\NC(=O)c2ccc(SC)c(n2)CNC(=O)C[C@@H](/C=C/CCSC(=O)CC)OC(=O)[C@H](C(C)C)NC1=O [Compound 164]	GI50 ([21]; lncap cells): 0.03 µM
no activity	0.083	0.035	0.083	0.022	0.026	0.051	0.034	0.022	0.043	0.029										C/C=C1\NC(=O)c2ccc(C)c(n2)CNC(=O)C[C@@H](/C=C/CCSC(C)=O)OC(=O)[C@H](Cc2ccccc2)NC1=O [Example 68]	GI50 [2]: 0.02 µM; GI50 [3]: 0.04 µM; GI50 [5]: 0.02 µM; GI50 [8]: 0.08 µM; GI50 [9]: 0.05 µM; GI50 [14]: 0.03 µM; GI50 [16]: 0.02 µM; GI50 [18]: 0.08 µM; GI50 [20]: 0.03 µM; GI50 [21]: 0.02 µM
